Patent US9283199B2, “Halogenated aliphatic carboxylic acids, oligomers and/or polymers thereof and their use in devitalizing external and internal neoplasms” (Cimas Limited, priority 2009, dated 2016)
Where two headings read alike, the source gives them in different places.

Legend:
[1] = in vivo; cited from earlier work
[2] = cited from earlier work
[3] = tested on: benign, viral, pre-malignant, non-metastasizing malignant and mucosal tumor lesions; test: Clinical study of topical DPA / DPA oligomer treatment of skin pathologies, long term follow-up (Example 1); format: in vivo, human; conditions: all tumor types, 2-8 years follow-up
Experimental: Patients suffering from benign tumors, viral warts or mucosal membraneus tumors were administered with the tetramer form of DPA. In some cases, DPA, as a monomer, was used. Patients suffering from premalignant or malignant tumors were administered with longer oligomers of DPA.
In most cases, the DPA monomer or oligomer was administered only once and without anesthesia or other special conditions. Only in cases of patients suffering from Recklinghausen disease (a multiple form of peripheral Neurofibromatosis), when the number of skin tumor lesions was more than 100, multiple treatment sessions were performed. […]
The safety of DPA oligomer treatment was assessed by evaluating the treated skin lesion appearance, local skin reaction, vital sign measurements, adverse events and concomitant medications taken by the patient. […]
At the 3-week, 6-week and 12-week post-treatment visit(s), a clinical assessment was performed to determine whether treated lesions were visible at the target site. Pigmented lesions, suspected of being malignant, were further evaluated microscopically by the excision of a biopsy sample with a 3 mm margin from the lesion, using the radioelectro technique, and histopathologically examining the sample for evidence of residual or recurrence of tumor. […]

[4] = in vivo; cited from earlier work; remark: listed apart in the source
Storage stability of DPA = format: physicochemical; conditions: stored in sealed brown glass containers between −4° C. and +50° C.

## CC(Cl)(Cl)C(=O)O [DPA, 2,2-Dichloropropanoic acid]
[1]
  half-life in human blood: 36 to 72 h
[2]; DPA and all of its known breakdown products
  solubility in water: dissolve easily in water
[2]; at 25° C.
  solubility in water: 90 g/100 ml
[2]
  solubility in organic solvents and lipids: insoluble
[3]; Total
  Very good result (++++) %: 82.1%
[3]
  satisfactory level of clinical results observed, % of the tumors: 99.1%
[4]
  accumulation in animal tissues: does not build up in animal tissues
Storage stability of DPA
  chemoanalytical and biological (efficacy) stability: at least 5 years
